How the values were obtained:
Test in all cases: relative viability (nuclei count vs DMSO), 5 days (fraction); higher = more cells survive
[1] = compound: O=c1ncccn1[C@@H]1O[C@H](CO)[C@@H](O)[C@H]1O [Zebularine] + O=C(c1cc(Cc2n[nH]c(=O)c3ccccc23)ccc1F)N1CCN(C(=O)C2CC2)CC1 [Olaparib] (partner 8 µM)
How it was run: (§1)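 Relative viability was taken as the ratio of nuclei in treated wells to nuclei in vehicle wells. Lung cancer cell lines in 1536-well plates received compounds by pin tool one day after seeding, either one drug alone or a fixed anchor-drug dose plus five library-drug doses (not always all listed) in √10 steps. Nuclei were counted on 4× images after 5 days of treatment, and values are medians of duplicate plates.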

[2] = compound: O=c1ncccn1[C@@H]1O[C@H](CO)[C@@H](O)[C@H]1O [Zebularine] + C[C@@H](Oc1cc(-c2cnn(C3CCNCC3)c2)cnc1N)c1c(Cl)ccc(F)c1Cl [Crizotinib] (partner 1 µM)
How it was run: as §1

[3] = compound: CC(C)CCN1c2nc(Nc3cc(F)c(O)c(F)c3)ncc2N(C)C(=O)C1C [BI-D1870] + C[C@]1(O)C[C@@H](c2nc(-c3ccc4ccc(-c5ccccc5)nc4c3)c3c(N)nccn32)C1 [Linsitinib] (partner 1 µM)
How it was run: as §1

[4] = compound: O=c1ncccn1[C@@H]1O[C@H](CO)[C@@H](O)[C@H]1O [Zebularine] + Nc1nc2[nH]cc(CCc3ccc(C(=O)N[C@@H](CCC(=O)O)C(=O)O)cc3)c2c(=O)[nH]1 [Pemetrexed] (partner 0.2 µM)
How it was run: as §1

Row | Cell Line | relative viability ([1]; first compound 1 µM) | relative viability ([1]; first compound 3.162 µM) | relative viability ([1]; first compound 10 µM) | relative viability ([1]; first compound 31.62 µM) | relative viability ([1]; first compound 100 µM) | relative viability ([2]; first compound 1 µM) | relative viability ([2]; first compound 3.162 µM) | relative viability ([2]; first compound 10 µM) | relative viability ([2]; first compound 31.62 µM) | relative viability ([2]; first compound 100 µM) | relative viability ([3]; first compound 0.04 µM) | relative viability ([3]; first compound 0.1265 µM) | relative viability ([3]; first compound 0.4 µM) | relative viability ([3]; first compound 1.265 µM) | relative viability ([3]; first compound 4 µM) | relative viability ([4]; first compound 1 µM) | relative viability ([4]; first compound 3.162 µM) | relative viability ([4]; first compound 10 µM) | relative viability ([4]; first compound 31.62 µM) | relative viability ([4]; first compound 100 µM)
1 | NCI-H1734 | 0.581 | 0.523 | 0.334 | 0.303 | 0.239 | 0.71 | 0.696 | 0.391 | 0.384 | 0.295 | 0.967 | 0.816 | 0.875 | 0.935 | 0.788 | 0.39 | 0.459 | 0.395 | 0.36 | 0.232
2 | NCI-H2126 | 1.08 | 0.855 | 0.778 | 0.664 | 0.43 | 1.11 | 0.987 | 0.958 | 0.804 | 0.503 | 0.724 | 0.712 | 0.694 | 0.73 | 0.677 | 0.635 | 0.487 | 0.592 | 0.453 | 0.348
3 | EMC-BAC-2 | 0.559 | 0.477 | 0.364 | 0.526 | 0.488 | 0.795 | 0.67 | 0.689 | 0.777 | 0.824 | 0.864 | 0.748 | 0.792 | 0.802 | 0.799 | 0.496 | 0.466 | 0.428 | 0.458 | 0.474
4 | NCI-H1993 | 1.09 | 0.885 | 0.416 | 0.982 | 0.693 | 0.732 | 0.801 |  | 0.862 | 0.646 | 0.812 | 0.739 | 0.726 | 0.703 | 0.797 | 0.612 | 0.65 | 0.518 | 0.58 | 0.585

Reference: the supplement of paper PMC10307832
